Experimental data from patent publication US8632846B2, “Apparatus and methods for loading a drug eluting medical device” (Medtronic Vascular, Inc., priority 2010, dated 2014).

Experiment: solubility of sirolimus in solvents / dispersion media
Format: physicochemical
Procedure: Solution 524 is a homogeneous mixture in which therapeutic substance 112 dissolves within a solvent or a solvent mixture. In one embodiment, solution 524 includes a high-capacity solvent 528 which is an organic solvent that has a high capacity to dissolve therapeutic substance 112. High capacity as utilized herein is defined as an ability to dissolve therapeutic substance 112 at concentrations greater than 500 mg of substance per milliliter of solvent. Examples of high capacity drug dissolving solvents for sirolimus and similar substances include but are not limited to tetrahydrofuran (THF), di-chloromethane (DCM), chloroform, and di-methyl-sulfoxide (DMSO). In addition to the high-capacity solvent, solution 524 may include an excipient 526 in order to assist in drug elution. In one embodiment, excipient 526 may be a surfactant such as but not limited to sorbitan fatty acid esters such as sorbitan monooleate and sorbitan monolaurate, polysorbates such as polysorbate 20, polysorbate 60, and polysorbate 80, cyclodextrins such as 2-hydroxypropyl-beta-cyclodextrin and 2,6-di-O-methyl-beta-cyclodextrin, sodium dodecyl sulfate, octyl glucoside, and low molecular weight poly(ethylene glycol)s. In another embodiment, excipient 526 may be a hydrophilic agent such as but not limited to salts such as sodium chloride and other materials such as urea, citric acid, and ascorbic acid. […]

## CO[C@H]1C[C@@H]2CC[C@@H](C)[C@@](O)(O2)C(=O)C(=O)N2CCCC[C@H]2C(=O)O[C@H]([C@H](C)C[C@@H]2CC[C@@H](O)[C@H](OC)C2)CC(=O)[C@H](C)/C=C(\C)[C@@H](O)[C@@H](OC)C(=O)[C@H](C)C[C@H](C)/C=C/C=C/C=C/1C [sirolimus]
hexane
  solubility in hexane: insoluble
water
  solubility in water: insoluble
